How the values were obtained:
[1] = test system: CD44v3 (CD44v3-His, whole cell extracts of COS-7 cells expressing CD44v3); assay: MST binding of NGF, TrkA or FGF to CD44v3; details: whole cell extracts of COS-7 expressing CD44v3, NGF alone, TrkA alone or FGF control
Description: (§1) MST was conducted using an NT.115 A Pico MST instrument (Nano Temper Technologies GmbH) equipped with red and blue filter sets. The TrkA-His tagged extracellular domain protein (Ala 34-Gly423) (9966-TK-050; R&D Systems, United Kingdom), diluted to 200 nM in PBS-T buffer (supplied by the vendor), was labeled using a Monolith His-Tag Labeling Kit with RED-Tris-NTA (Nano Temper). The RED-Tris-NTA dye was diluted in PBS-T to 100 nM. The mix was incubated at RT in the dark for 30 min. Next, an extract expressing CD44v3-labeled protein (CD44v3-His) and ligand and/or TrkA was mixed at a 1:1 ratio and incubated at RT in the dark for 15 min. For the binding check, peptides and TrkA-His were used. Capillaries were filled individually and loaded into the instrument. The data were acquired using high MST power and 100% LED. The data were analyzed using MO Control Software (Nano Temper).
(§2) Fig. 1 The C-terminal region of CD44 variant 3 binds to TrkA. A Schematic representation of the CD44 gene and protein structure. Alternative splicing leads to the expression of CD44 variants, thus the insertion of exon 8 leads to the expression of a CD44 protein containing variant 3 (CD44v3) and the insertion of exon 11 leads to the expression of a CD44 containing variant 6 (CD44v6) (B) TrkA/CD44v3 complex formation in COS-7 cells expressing TrkA and CD44v3 was detected by the proximity ligation assay (PLA), which was performed 0, 5 and 30 min after the initiation of NGF (100 ng/ml) treatment. The images represent signals detected by PLA. Quantification of the red spots was performed by ImageJ software (30 randomly chosen fields per condition of three different experiments). Statistical analyses were performed using one-way ANOVA followed by Bonferroni’s posttest. Error bars represent the standard error of the mean (S.E.M.); *** p < 0.001. ns, nonsignificant. C NGF and/or TrkA binding to CD44v3 was measured by microscale thermophoresis (MST). MST experiments were performed on whole cell extracts of COS-7 cells expressing CD44v3. […]

[2] = test system: TrkA-His tagged extracellular domain protein (Ala 34-Gly423); assay: MST binding of CD44v3 mimetic peptides to TrkA; details: TrkA-His 200 nM labelled with RED-Tris-NTA, PBS-T
Description: as §1
Fig. 2 The C-terminal region of CD44v3 and the His112 residue of TrkA are involved in the CD44v3/TrkA interaction. TrkA/CD44v3 complex association was detected by the proximity ligation assay (PLA) in wild-type TrkA- or TrkA_H112A- and CD44v3-expressing COS-7 cells. Proximity ligation assays were performed after 0, 5 and 30 min of NGF treatment (100 ng/ml). Representative images of signals detected by PLA (A) and their quantification (B). Sequence of CD44 exon variant 3 and deletion mutant Δ3 or Δ4 (C). TrkA/CD44v3 complex association was detected by PLA in wild-type TrkA and CD44v3 wild type or CD44v3 deleted mutant Δ3 or Δ4 expressing COS-7 (D, E). Sequence of CD44v3 mimetic peptides (F) and structure (G). TrkA binding to CD44v3 mimetic peptides by microscale thermophoresis (H) and effects of CD44v3 mimetic peptides 3 (RDRHLSFSGSG) and 4 ([…]) on TrkA/CD44v3 complex formation (I, J). Quantification of PLA was performed using ImageJ software (30 fields per condition of three different experiments). Statistical analyses were performed using one-way ANOVA followed by Bonferroni’s posttest.
To block the TrkA-CD44v3 association, 4 mimetic peptides of CD44v3 were designed corresponding to zone 1 [(K) STSSNTISAG], zone 2 (WEPNEENEDE), zone 3 (RDRHLSFSGSG) and zone 4 (IDDDEDFISST) (Fig. 2F & G). The binding capacities of the CD44v3 mimetic peptides to TrkA were then measured by MST (Fig. 2H). […] To confirm mimetic peptide 4 binding, we assessed its ability to bind TrkA using nanoscale differential scanning fluorimetry (nanoDSF; Supplementary Fig. 6A & B).

[3] = test system: TrkA/CD44v3 complex in COS-7 cells expressing TrkA and CD44v3; assay: PLA TrkA/CD44v3 complex formation in COS-7 cells; assay type: cell-based, African green monkey (COS-7 cells); details: COS-7 expressing TrkA and CD44v3, NGF 100 ng/ml, 0, 5 and 30 min, 30 fields per condition, three experiments
Description: (§3) Cells (10,000 cells per well) were grown on acid-washed eight-well glass slides (Thermo Scientific) in the appropriate medium supplemented with 10% FBS for 24 h. After NGF treatment, paraformaldehyde (PAF)-fixed cells were incubated with 4% bovine serum albumin (BSA) or 5% FBS (for 1 h at 20 °C), followed by overnight incubation with primary antibodies (rabbit anti-TrkA or rabbit anti-IgG + mouse anti-pan-CD44; mouse anti-CD44v3; mouse anti-CD44v6; mouse anti-IgG2a; mouse anti-IgG2b; or mouse anti-IgG1). PLA was performed following the manufacturer’s instructions in the assay kit (Duolink PLA; Sigma–Aldrich). To obtain the correct representation of the PLA signal for each condition, 30 fields per condition were observed using a fluorescence microscope (Eclipse TiU; Nikon, Japan). The PLA signals (red dots) were automatically quantified using ImageJ software (with an in-house-developed plug-in). After PLA, statistical analyses were performed using GraphPad Prism software to determine the mean dot intensity in the cells.
as §2
Fig. 2 The C-terminal region of CD44v3 and the His112 residue of TrkA are involved in the CD44v3/TrkA interaction. TrkA/CD44v3 complex association was detected by the proximity ligation assay (PLA) in wild-type TrkA- or TrkA_H112A- and CD44v3-expressing COS-7 cells. […] Representative images of signals detected by PLA (A) and their quantification (B). […] TrkA/CD44v3 complex association was detected by PLA in wild-type TrkA and CD44v3 wild type or CD44v3 deleted mutant Δ3 or Δ4 expressing COS-7 (D, E). […] Quantification of PLA was performed using ImageJ software (30 fields per condition of three different experiments). […]

[4] = test system: TrkA/CD44v3 complex in MDA-MB-231 cells; assay: PLA TrkA/CD44v3 complex formation in MDA-MB-231 cells; assay type: cell-based; details: NGF 100 ng/ml; 30 fields per condition, three experiments
Description: as §3
Fig. 3 CD44v3 mimetic peptide 4 blocks the TrkA-CD44 association in MDA-MB-231 breast cancer cells. TrkA/CD44v3 (A) and TrkA/CD44v6 (B) complex associations were detected by the proximity ligation assay (PLA) in MDA-MB-231 breast cancer cells. Effects of a scramble peptide (SP) (C), CD44v3 mimetic peptide 3 (P3) and 4 (P4) (D) on TrkA/CD44v3 complex formation induced by NGF. Quantification of the PLA results was performed by ImageJ software (30 randomly chosen fields per condition of three different experiments). Statistical analyses were performed using one-way ANOVA followed by Bonferroni’s posttest. The error bars represent the standard error of the mean (S.E.M.); * p < 0.05, ** p < 0.01, *** p < 0.001; ns, not significant

## FGF-1: fibroblast growth factor, positive control for CD44v3 binding
[1]
  binding to CD44v3 (in words): In contrast to FGF-1 (Supplementary Fig. 4), NGF did not bind to CD44v3

## FGF-2: FGF-2 (control), binding to CD44v3
[1]
  binding to CD44v3 (in words): binding to CD44v3 but not to NGF was detected

## KSTSSNTISAG [Peptide 1, CD44v3 mimetic peptide corresponding to zone 1 [(K) […]]]
[2]
  binding to TrkA by MST (in words): neither peptide 1 ([…]) nor peptide 2 ([…]) could bind TrkA

## RDRHLSFSGSG [Peptide 3, CD44v3 mimetic peptide corresponding to zone 3 (…)]
[3]
  effect on TrkA/CD44v3 complex formation (PLA) in COS-7 cells: did not inhibit TrkA/CD44v3 complex formation
[3]; listed as P3
  effect on TrkA/CD44v3 complex formation (PLA) in COS-7 cells: did not abolish complex formation
[2]; listed as P3
  binding to TrkA by MST (in words): also bound TrkA
[4]
  effect on TrkA/CD44v3 complex formation (PLA) in MDA-MB-231 cells: neither a scramble peptide (Fig. 3C) nor mimetic peptide P3 (Fig. 3D) inhibited TrkA/CD44v3 complex formation following NGF treatment

## WEPNEENEDE [Peptide 2, CD44v3 mimetic peptide corresponding to zone 2 (…)]
[2]
  binding to TrkA by MST (in words): neither peptide 1 (KSTSSNTISAG) nor peptide 2 (WEPNEENEDE) could bind TrkA
